Reference: ChEMBL document CHEMBL1201862, “PubChem BioAssay data set” (2004)
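Following 48 hours of exposure in 96-well plates, responses at five concentrations were used to interpolate endpoints linearly. Here, GI50 denotes the concentration required for 50% inhibition of growth.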 The source made the active and inactive calls. Rule as the data show it: active = GI50 up to about 1.1 µM and inactive = higher.

Key:
Assay in all cases: DTP human tumour cell line panel, 48 h
NCI/ADR-RES = tested on: NCI/ADR-RES
MDA-MB-435 = tested on: MDA-MB-435
SK-MEL-28 = tested on: SK-MEL-28
SF-539 = tested on: SF-539
OVCAR-4 = tested on: OVCAR-4
UACC-62 = tested on: UACC-62
KM12 = tested on: KM12
PC-3 = tested on: PC-3
OVCAR-3 = tested on: OVCAR-3
TK-10 = tested on: TK-10
MCF7 = tested on: MCF7
ACHN = tested on: ACHN
UACC-257 = tested on: UACC-257
CAKI-1 = tested on: CAKI-1
A549 = tested on: A549
SK-MEL-2 = tested on: SK-MEL-2
SNB-19 = tested on: SNB-19
DU-145 = tested on: DU-145
786-0 = tested on: 786-0
T47D = tested on: T47D

Measured: GI50

O=C1CC(c2cccc(Br)c2)n2cccc21 (stereo not given)
inactive: NCI/ADR-RES > 100 µM | MDA-MB-435 > 100 µM | SK-MEL-28 > 100 µM | SF-539 > 100 µM | OVCAR-4 88.9 µM | UACC-62 > 100 µM | KM12 46.2 µM | PC-3 39.5 µM | OVCAR-3 > 100 µM | TK-10 > 100 µM | MCF7 86.9 µM | ACHN 68.5 µM | UACC-257 > 100 µM | CAKI-1 44.6 µM | A549 62.1 µM | SK-MEL-2 29 µM | SNB-19 > 100 µM | DU-145 > 100 µM | 786-0 > 100 µM | T47D 63.4 µM

CC(=O)OCC1OC(n2c(C)c(C)c(C)c(C#N)c2=S)C(OC(C)=O)C(OC(C)=O)C1OC(C)=O (stereo not given)
inactive: NCI/ADR-RES > 100 µM | MDA-MB-435 > 100 µM | SK-MEL-28 > 100 µM | SF-539 69.7 µM | OVCAR-4 > 100 µM | UACC-62 > 100 µM | KM12 > 100 µM | PC-3 > 100 µM | OVCAR-3 > 100 µM | TK-10 46.6 µM | MCF7 > 100 µM | ACHN 48.5 µM | UACC-257 > 100 µM | CAKI-1 > 100 µM | A549 > 100 µM | SK-MEL-2 31.9 µM | SNB-19 33.7 µM | DU-145 > 100 µM | 786-0 23.7 µM | T47D > 100 µM

Cc1nc(=O)[nH]c2c1C(=O)N(C(C)C)C(NC(C)C)S2 (stereo not given)
inactive: NCI/ADR-RES > 100 µM | MDA-MB-435 > 100 µM | SK-MEL-28 > 100 µM | SF-539 > 100 µM | OVCAR-4 57.9 µM | UACC-62 76 µM | KM12 > 100 µM | PC-3 41.2 µM | OVCAR-3 26.9 µM | TK-10 > 100 µM | MCF7 > 100 µM | ACHN > 100 µM | UACC-257 > 100 µM | CAKI-1 55.1 µM | A549 > 100 µM | SK-MEL-2 > 100 µM | SNB-19 > 100 µM | DU-145 > 100 µM | 786-0 > 100 µM | T47D 90.2 µM

O=C1CCC2(CC1CC(Sc1ccccc1)Sc1ccccc1)OCCO2 (stereo not given)
inactive: NCI/ADR-RES 33.4 µM | MDA-MB-435 36.7 µM | SK-MEL-28 85.9 µM | SF-539 43.1 µM | OVCAR-4 56.1 µM | UACC-62 31.2 µM | KM12 27.4 µM | PC-3 25.2 µM | OVCAR-3 30.6 µM | TK-10 62.7 µM | MCF7 32 µM | ACHN 38.6 µM | UACC-257 36.8 µM | CAKI-1 34.9 µM | A549 38.2 µM | SK-MEL-2 24.9 µM | SNB-19 74.1 µM | DU-145 88.5 µM | 786-0 45.7 µM | T47D 22.5 µM

CC(=O)OC1COC(Nc2nc(N)n(C)c(=O)c2N=O)C(OC(C)=O)C1OC(C)=O (stereo not given)
inactive: NCI/ADR-RES > 10 µM | MDA-MB-435 > 10 µM | SK-MEL-28 > 10 µM | SF-539 > 10 µM | OVCAR-4 > 10 µM | UACC-62 > 10 µM | KM12 > 10 µM | PC-3 > 10 µM | OVCAR-3 > 10 µM | TK-10 > 10 µM | MCF7 > 10 µM | ACHN > 10 µM | UACC-257 > 10 µM | CAKI-1 > 10 µM | A549 > 10 µM | SK-MEL-2 > 10 µM | SNB-19 > 10 µM | DU-145 > 10 µM | 786-0 > 10 µM | T47D > 10 µM

Oc1ccc(/N=C/c2ccc(/C=N/c3ccc(O)cc3)cc2)cc1
inactive: NCI/ADR-RES 14.8 µM | MDA-MB-435 16.3 µM | SK-MEL-28 18.8 µM | SF-539 15.3 µM | OVCAR-4 14.5 µM | UACC-62 12.6 µM | KM12 15.3 µM | PC-3 16.3 µM | OVCAR-3 16.3 µM | TK-10 18.1 µM | MCF7 22.9 µM | ACHN 13.1 µM | UACC-257 16.8 µM | CAKI-1 20 µM | A549 19.2 µM | SK-MEL-2 21.2 µM | SNB-19 16 µM | DU-145 18 µM | 786-0 15.3 µM | T47D 25.7 µM

CN(C)CCCN1c2ccccc2CCc2cccc([N+](=O)[O-])c21
inactive: NCI/ADR-RES 16.5 µM | MDA-MB-435 16.7 µM | SK-MEL-28 13.4 µM | SF-539 17.7 µM | OVCAR-4 18 µM | UACC-62 18.5 µM | KM12 17.1 µM | PC-3 19.8 µM | OVCAR-3 16.3 µM | TK-10 21.5 µM | MCF7 16.8 µM | ACHN 22.5 µM | UACC-257 20.4 µM | CAKI-1 20 µM | A549 37.3 µM | SK-MEL-2 26.5 µM | SNB-19 47.2 µM | DU-145 17.4 µM | 786-0 15.3 µM | T47D 13.7 µM
